The target in test [1] is T1, Lysine-specific histone demethylase 1A (Homo sapiens, UniProt O60341). Kind of test: Inhibition of recombinant LSD1 (unknown origin) preincubated for 10 mins in presence of H3K4Me2 measured after 30 mins by measuring fluorescence intensity by fluorescence based microplate reader.
The subject of the next test is HCT-116. Briefly: Antiproliferative activity against human HCT-116 cells incubated for 48 hrs measured by MTT assay. Type of test: functional, cell-based. The following applies: HCT-116, 48 h. A general note: Formazan colour is commonly taken as a measure of viable cells.
The test system of a further test is MGC-803. Briefly: Antiproliferative activity against human MGC-803 cells incubated for 48 hrs measured by MTT assay. Type of test: functional, cell-based. To be noted: MGC-803, 48 h.
The subject of another test is KYSE-450. Kind of test: Antiproliferative activity against human KYSE-450 cells incubated for 48 hrs measured by MTT assay. The format is functional, cell-based. The following applies: KYSE-450, 48 h.
For test [2], the target named is T1, Lysine-specific histone demethylase 1A. Kind of test: Inhibition of LSD1 in human MGC-803 cells assessed as increase in methylation of H3K4 at 24 micromol/L. Type of test: cell-based. To be noted: dose 24.0 µmol/L.
Test [3] has the same target. Kind of test: Inhibition of LSD1 in human MGC-803 cells assessed as increase in methylation of H3K9 at 24 micromol/L. The format is cell-based. The following applies: dose 24.0 µmol/L.

SMILES strings stand for the structures. Activity calls are given as the source filed them. No cut-off for these calls is given here.

Take `CN1CCN(C(=O)c2cccc(CN[C@@H]3C[C@H]3c3ccc(F)c(F)c3)c2)CC1`: in test [1], the IC50 was found to be 0.222 µM.
On the same count and under the same terms, the result for `NC1CCN(C(=O)c2cccc(CN[C@@H]3C[C@H]3c3ccc(F)c(F)c3)c2)CC1` reads 0.668 µM.
As for `O=C(Nc1cccc(S(=O)(=O)N2CCOCC2)c1)c1cccc(CN[C@@H]2C[C@H]2c2ccc(F)c(F)c2)c1`, the IC50 in the test on HCT-116 was determined as 36.1 µM; in test [1], 0.0326 µM; in the test on MGC-803, 29.7 µM; with KYSE-450, 38.7 µM.
For `c1ccc([C@@H]2C[C@H]2NC2CCNCC2)cc1`, the IC50 with HCT-116, in the test with MGC-803 and in the test on KYSE-450 was above 64 µM throughout. For the same compound, the inhibition entry in test [2] and in test [3] was “Active” in each case.
As to `O=C(O)c1cccc(NC(=O)c2cccc(CN[C@@H]3C[C@H]3c3ccc(F)c(F)c3)c2)c1`, the IC50 in test [1] turned out to be 0.479 µM.
As for `O=C(c1cccc(CN[C@@H]2C[C@H]2c2ccc(F)c(F)c2)c1)N1CCc2ccccc21`, the IC50 with HCT-116 was 50.1 µM; in test [1], 0.0261 µM; with MGC-803, 33.7 µM; in the test on KYSE-450 it was 51.5 µM.
On the same counts, the results for `O=C(c1cccc(CN[C@@H]2C[C@H]2c2ccc(F)c(F)c2)c1)N1CC2CCCCC2C1` (stereo not given in full) are 55.7 µM, 0.058 µM, 51.2 µM and 68.9 µM.
As to `O=C(O)c1cccc(CN[C@@H]2C[C@H]2c2ccc(F)c(F)c2)c1`, in test [1], the IC50 amounted to 0.517 µM.
For the compound `O=C(NCC1CCNCC1)c1cccc(CN[C@@H]2C[C@H]2c2ccc(F)c(F)c2)c1`, in test [1], the IC50 was 0.173 µM.
Still for that read-out and setting: the same measure for `CN1CCN(c2ccc(NC(=O)c3cccc(CN[C@@H]4C[C@H]4c4ccc(F)c(F)c4)c3)cc2)CC1`: 0.249 µM.
For the compound `O=C(O)c1ccc(CN2CCC(CN[C@@H]3C[C@H]3c3ccccc3)CC2)cc1` [GSK2879552], the IC50 in the test with HCT-116, in the test with MGC-803 and in the test with KYSE-450 was above 64 µM in each case.
Take `CN(Cc1ccccc1)C(=O)c1cccc(CN[C@@H]2C[C@H]2c2ccc(F)c(F)c2)c1`: the IC50 in test [1] was 0.0421 µM.
Take `O=C(NC1CC(F)(F)C1)c1cccc(CN[C@@H]2C[C@H]2c2ccc(F)c(F)c2)c1`: the IC50 in the test on HCT-116 stood at 58.2 µM; in test [1], 0.115 µM; with MGC-803 it was 54.9 µM; in the test on KYSE-450 it was 64.5 µM.
On the same counts, the results for `CCN1CCN(c2ccc(NC(=O)c3cccc(CN[C@@H]4C[C@H]4c4ccc(F)c(F)c4)c3)cc2)CC1` are 28.1 µM, 0.0428 µM, 28 µM and 24.8 µM.
As to `O=C(c1cccc(CN[C@@H]2C[C@H]2c2ccc(F)c(F)c2)c1)N1CCN(c2ccccc2)CC1`, the IC50 in test [1] turned out to be 0.0563 µM.
On the same count and under the same terms, the same measure for `O=C(Nc1ccc(N2CCOCC2)c(F)c1)c1cccc(CN[C@@H]2C[C@H]2c2ccc(F)c(F)c2)c1`: 0.249 µM; for `CN1CCN(S(=O)(=O)c2cccc(NC(=O)c3cccc(CN[C@@H]4C[C@H]4c4ccc(F)c(F)c4)c3)c2)CC1`: 0.325 µM; for `CCCCNC(=O)c1cccc(CN[C@@H]2C[C@H]2c2ccc(F)c(F)c2)c1`: 0.203 µM.
On the same count and under the same terms, the result for `COCCNC(=O)c1cccc(CN[C@@H]2C[C@H]2c2ccc(F)c(F)c2)c1` reads 0.231 µM; that for `NC(=O)CNC(=O)c1cccc(CN[C@@H]2C[C@H]2c2ccc(F)c(F)c2)c1`, 0.108 µM.
As for `COC(=O)c1cccc(NC(=O)c2cccc(CN[C@@H]3C[C@H]3c3ccc(F)c(F)c3)c2)c1`, the IC50 is 45.7 µM in the test on HCT-116, 0.0321 µM in test [1], 50.1 µM with MGC-803 and 67.9 µM in the test with KYSE-450.
As for `NC(=O)C1CCN(C(=O)c2cccc(CN[C@@H]3C[C@H]3c3ccc(F)c(F)c3)c2)CC1`, the IC50 with HCT-116 was above 128 µM; in test [1], 0.108 µM; in the test with MGC-803, above 128 µM; in the test on KYSE-450 it was above 128 µM.
On to `Cc1ccc(NC(=O)c2cccc(CN[C@@H]3C[C@H]3c3ccc(F)c(F)c3)c2)cc1`, for which the IC50 in test [1] amounted to 0.0364 µM.
Consider `NCC1CCN(C(=O)c2cccc(CN[C@@H]3C[C@H]3c3ccc(F)c(F)c3)c2)CC1`, for which the IC50 was above 128 µM with HCT-116, 0.181 µM in test [1], above 128 µM in the test on MGC-803 and above 128 µM in the test with KYSE-450.
For the compound `O=C(c1cccc(CN[C@@H]2C[C@H]2c2ccc(F)c(F)c2)c1)N1CCC(O)CC1`, the IC50 in test [1] worked out at 0.141 µM.

Usually IC50 stands for the concentration at which inhibition is half-maximal.
